Assay results taken from ChEMBL document CHEMBL3044936, “Antifeedant properties of natural products from Parthenium argentatum, P. argentatumP. tomentosum (Asteraceae) and Castela emoryi (Simaroubeaceae) against Reticulitermes flavipes” (1999).
≈ marks a conversion by molar mass, not a printed value.

How the values were obtained:
Format in all cases: functional
[1] = system: Reticulitermes flavipes; experiment: Antifeedant activity against Reticulitermes flavipes assessed as feeding inhibition at 2.7 ug/disk after 3 days by choice paper disk assay; settings: 72 h
[2] = system: Reticulitermes flavipes; experiment: Antifeedant activity against Reticulitermes flavipes assessed as feeding inhibition after 3 days by choice paper disk assay; settings: 72 h, read-out: ED50 (the source's name)
[3] = system: Reticulitermes flavipes; experiment: Ratio of mortality to compound consumption in Reticulitermes flavipes at 5.5 ug/disk after 10 days
[4] = system: Reticulitermes flavipes; experiment: Antitermitic activity against Reticulitermes flavipes assessed as mortality at 5.5 ug/disk after 10 days by no-choice paper disk assay; settings: 240 h
[5] = system: Reticulitermes flavipes; experiment: Antifeedant activity against Reticulitermes flavipes assessed as compound consumption at 5.5 ug/disk after 10 days by no-choice paper disk assay

Row | Structure (SMILES) | inhibition at 2.7 µg/disc [1] [%] | EC50 [2] [µg/mL] | Ratio [3] | mortality at 5.5 µg/disc [4] [%] | Activity [5] [%]
1 | COC1=C[C@]2(C)CCC(C(C)C)=CC2=C(C)C1=O [ARGENTONE] | 70.5 | 85.7 (≈ 348 µM) | 2 | 66 | 33
2 | COc1ccc(C(=O)O[C@H]2C/C(C)=C/CC/C(C)=C/[C@H]3[C@@H]2C3(C)C)cc1 [GUAYULIN B] | 31.9 | > 1000 | 0 | 0 | 72
3 | CC(=O)O[C@H]1C(=O)O[C@@H]2C[C@H]3C(C)=CC(=O)[C@@H](O)[C@]3(C)[C@H]3[C@]4(O)OC[C@]32[C@@H]1[C@@H](C)[C@H]4O [HOLACANTHONE] | 39.4 | > 1000 | 0.7 | 24 | 34
4 | CC(C)(O)[C@@H]1CC[C@](C)([C@H]2[C@@H](O)C[C@@]3(C)C4=C(CC[C@]23C)[C@@]2(C)CCC(=O)C(C)(C)[C@@H]2CC4)O1 [INCANILIN] | 30.8 | > 1000 | 0 | 0 | 16
5 | C/C1=C\[C@H]2[C@@H]([C@@H](O)C/C(C)=C/CC1)C2(C)C [PARTHENIOL] | 46 | 490 (≈ 2230 µM) | 1.1 | 71 | 65
